Data published in patent publication US12239643B2, “Therapeutic agent for inflammatory diseases, autoimmune diseases, fibrotic diseases, and cancer diseases” (MEIJI SEIKA PHARMA CO., LTD., priority 2018, dated 2025).
Like-named read-outs stand apart in the source and are kept apart here.

Columns and labels:
[1] = Hepatic metabolic stability (rat liver microsome method); type: in vitro ADME; details: rat liver microsomes 0.5 mg/mL, test substance 1 μM, NADPH 1 mM, 37° C., 30 minutes
Description: Metabolic stability in rat liver microsomes was evaluated by the following method. First, in 100 mM of potassium phosphate buffer solution (pH 7.4), liver microsomes (concentration at reaction: 0.5 mg/mL) and the test substance (concentration at reaction: 1 μM) were preincubated at 37° C. Five minutes later, 100 mM of potassium phosphate buffer (pH 7.4) solution of NADPH (concentration at reaction: 1 mM) was mixed thereto to start the reaction. After a predetermined time passed, acetonitrile was mixed to the reaction mixture to stop the reaction. Here, the reaction time was 0 and 30 minutes, and drug concentration measurement was performed for each time period using LC-MS. The % remaining value of the test compound was calculated from the value for 0 minutes and the value for 30 minutes, using the calculation formula below: % Remaining=(Value for 30 Minutes/Value for 0 Minutes)×100
The results of measuring the rat liver microsome metabolic Stability (% remaining for 30-minute reaction) for the test compound by the above method were evaluated in accordance with the following evaluated basis; A: a % remaining rate of 75% or more, B: 60% or more and less than 75%, C: 45% or more and less than 60%, and D: less than 45%.

PDE4 = assay: Evaluation of PDE4 inhibitory activity, scintillation proximity assay; type: biochemical; details: scintillation proximity assay
Outline: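 SPA with [2,8-3H]-cAMP and diluted PDE4 enzyme preparation in 50 mM Tris-HCl pH 7.4, 8.3 mM MgCl2, 1.7 mM EGTA, 3 mg/mL BSA, 120 min at room temperature. Product captured on ZnSO4-containing YSi-SPA beads, scintillation counted; IC50 from inhibition curves vs DMSO control and no-enzyme blank.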

[2] = read-out: PDE4 Inhibitory Activity (Evaluation 1; concentration for the inhibition rate of 50%)
[3] = class symbols of Evaluation 1, read-out: PDE4 Inhibitory Activity (concentration for the inhibition rate of 50%, IC50), Evaluation 1

| Compound | Residual ratio (% remaining for 30-minute reaction) [1] | IC50 (PDE4; [2]) | IC50 (PDE4; [3]) |
| --- | --- | --- | --- |
| CC(C)(O)C(F)(F)Oc1c(Cl)cc(-c2nccs2)c2oc(N3CC4CC(C3)N4)nc12 [Example 400, 1-((2-(3,6-Diazabicyclo[3.1.1]heptan-3-yl)-5-chloro-7-(thiazol-2-yl)benzo[d]oxazol-4-yl)oxy)-1,1-difluoro-2-methylpropan-2-ol] | B (B: 60% or more and less than 75%) | < 100 nM | – |
| c1csc(-c2ccc(OC3CCOCC3)c3nc(N4CC5CCC(C4)N5)oc23)n1 [Example 254, 2-(3,8-Diazabicyclo[3.2.1]octan-3-yl)-4-((tetrahydro-2H-pyran-4-yl)oxy)-7-(thiazol-2-yl)benzo[d]oxazole] | A (A: a % remaining rate of 75% or more) | < 100 nM | – |
| OCC(F)(F)Oc1c(Cl)cc(-c2nccs2)c2oc(N3CC4CC(C3)N4)nc12 [Example 401, 2-((2-(3,6-Diazabicyclo[3.1.1]heptan-3-yl)-5-chloro-7-(thiazol-2-yl)benzo[d]oxazol-4-yl)oxy)-2,2-difluoroethan-1-ol] | A (A: a % remaining rate of 75% or more) | < 100 nM | – |
| Cn1ccc(-c2ccc(OC(F)(F)C(C)(C)O)c3nc(N4CC5CCC(C4)N5)oc23)n1 [Example 328, 1-((2-(3,8-Diazabicyclo[3.2.1]octan-3-yl)-7-(1-methyl-1H-pyrazol-3-yl)benzo[d]oxazol-4-yl)oxy)-1,1-difluoro-2-methylpropan-2-ol] | A (A: a % remaining rate of 75% or more) | < 100 nM | – |
| CC(C)(O)C(F)(F)Oc1ccc(-c2ccc(F)cn2)c2oc(N3CC4CC(C3)N4)nc12 [Example 329, 1-((2-(3,6-Diazabicyclo[3.1.1]heptan-3-yl)-7-(5-fluoropyridin-2-yl)benzo[d]oxazol-4-yl)oxy)-1,1-difluoro-2-methylpropan-2-ol] | A (A: a % remaining rate of 75% or more) | < 100 nM | – |
| OCc1ccc(Oc2ccc(-c3nccs3)c3oc(N4CC5CC(C4)N5)nc23)nc1 [Example 341, (6-((2-(3,6-Diazabicyclo[3.1.1]heptan-3-yl)-7-(thiazol-2-yl)benzo[d]oxazol-4-yl)oxy)pyridin-3-yl)methanol] | A (A: a % remaining rate of 75% or more) | < 100 nM | – |
| O=S(=O)(c1ccc(-c2nccs2)c2oc(N3CC4CC(C3)N4)nc12)N1CCOCC1 [Example 391, 2-(3,6-Diazabicyclo[3.1.1]heptan-3-yl)-4-(morpholinosulfonyl)-7-(thiazol-2-yl)benzo[d]oxazole] | B (B: 60% or more and less than 75%) | < 100 nM | – |
| CC(C)(O)C(F)(F)Oc1ccc(-c2ccc(F)cn2)c2oc(N3CC4CCC(C3)N4)nc12 [Example 332, 1-((2-(3,8-Diazabicyclo[3.2.1]octan-3-yl)-7-(5-fluoropyridin-2-yl)benzo[d]oxazol-4-yl)oxy)-1,1-difluoro-2-methylpropan-2-ol] | A (A: a % remaining rate of 75% or more) | < 100 nM | – |
| COCCNC(=O)c1ccc(-c2nccs2)c2oc(N3CC4CC(C3)N4)nc12 [Example 353, 2-(3,6-Diazabicyclo[3.1.1]heptan-3-yl)-N-(2-methoxyethyl)-7-(thiazol-2-yl)benzo[d]oxazole-4-carboxamide] | A (A: a % remaining rate of 75% or more) | < 100 nM | – |
| OCC(O)C(F)(F)Oc1ccc(-c2nccs2)c2oc(N3CC4CC(C3)N4)nc12 (stereo not drawn) [Example 370, 3-((2-(3,6-Diazabicyclo[3.1.1]heptan-3-yl)-7-(thiazol-2-yl)benzo[d]oxazol-4-yl)oxy)-3,3-difluoropropane-1,2-diol] | A (A: a % remaining rate of 75% or more) | < 100 nM | – |
| O=C(N1CCOCC1)C(F)(F)Oc1ccc(-c2nccs2)c2oc(N3CC4CC(C3)N4)nc12 [Example 409, 2-((2-(3,6-Diazabicyclo[3.1.1]heptan-3-yl)-7-(thiazol-2-yl)benzo[d]oxazol-4-yl)oxy)-2,2-difluoro-1-morpholinoethan-1-one] | B (B: 60% or more and less than 75%) | < 100 nM | – |
| OC(c1cc(-c2nccs2)c2oc(N3CC4CCC(C3)N4)nc2c1)C(F)F (stereo not drawn) [Example 104, 1-(2-(3,8-Diazabicyclo[3.2.1]octan-3-yl)-7-(thiazol-2-yl)benzo[d]oxazol-5-yl)-2,2-difluoroethan-1-ol] | B (B: 60% or more and less than 75%) | – | < 100 nM |
| c1csc(-c2ccc(N3CCOCC3)c3nc(N4CC5CC(C4)N5)oc23)n1 [Example 369, 2-(3,6-Diazabicyclo[3.1.1]heptan-3-yl)-4-morpholino-7-(thiazol-2-yl)benzo[d]oxazole] | B (B: 60% or more and less than 75%) | < 100 nM | – |
| CC(C)(O)C(F)(F)Oc1ccc(-n2cccn2)c2oc(N3CC4CC(C3)N4)nc12 [Example 304, 1-((2-(3,6-Diazabicyclo[3.1.1]heptan-3-yl)-7-(1H-pyrazol-1-yl)benzo[d]oxazol-4-yl)oxy)-1,1-difluoro-2-methylpropan-2-ol] | A (A: a % remaining rate of 75% or more) | < 100 nM | – |
| C[C@@H](O)COc1ccc(-c2nccs2)c2oc(N3CC4CC(C3)N4)nc12 [Example 259, (2R)-1-((2-(3,6-diazabicyclo[3.1.1]heptan-3-yl)-7-(thiazol-2-yl)benzo[d]oxazol-4-yl)oxy)propan-2-ol] | A (A: a % remaining rate of 75% or more) | < 100 nM | – |
| Cn1ccc(-c2ccc(OC(F)(F)C(C)(C)O)c3nc(N4CC5CC(C4)N5)oc23)n1 [Example 394, 1-((2-(3,6-Diazabicyclo[3.1.1]heptan-3-yl)-7-(1-methyl-1H-pyrazol-3-yl)benzo[d]oxazol-4-yl)oxy)-1,1-difluoro-2-methylpropan-2-ol] | A (A: a % remaining rate of 75% or more) | 100 to 1000 nM | – |
| CC(C)(O)C(F)(F)Oc1ccc(-c2nccs2)c2oc(N3CC4CCC(C3)N4)nc12 [Example 405, 1-((2-(3,8-Diazabicyclo[3.2.1]octan-3-yl)-7-(thiazol-2-yl)benzo[d]oxazol-4-yl)oxy)-1,1-difluoro-2-methylpropan-2-ol] | B (B: 60% or more and less than 75%) | < 100 nM | – |
| c1cc(-c2nccs2)c2oc(N3CC4CC(C3)N4)nc2c1 [Example 382, 2-(3,6-Diazabicyclo[3.1.1]heptan-3-yl)-7-(thiazol-2-yl)benzo[d]oxazole] | B (B: 60% or more and less than 75%) | < 100 nM | – |
| FC(F)(F)c1c(Cl)cc(-n2cccn2)c2oc(N3CC4CC(C3)N4)nc12 [Example 17, 2-(3,6-Diazabicyclo[3.1.1]heptan-3-yl)-5-chloro-7-(1H-pyrazol-1-yl)-4-(trifluoromethyl)benzo[d]oxazole] | B (B: 60% or more and less than 75%) | – | < 100 nM |
| CN(CCO)C(=O)c1ccc(-c2nccs2)c2oc(N3CC4CC(C3)N4)nc12 [Example 356, 2-(3,6-Diazabicyclo[3.1.1]heptan-3-yl)-N-(2-hydroxyethyl)-N-methyl-7-(thiazol-2-yl)benzo[d]oxazole-4-carboxamide] | A (A: a % remaining rate of 75% or more) | 100 to 1000 nM | – |
| COCCNS(=O)(=O)c1ccc(-c2nccs2)c2oc(N3CC4CC(C3)N4)nc12 [Example 387, 2-(3,6-Diazabicyclo[3.1.1]heptan-3-yl)-N-(2-methoxyethyl)-7-(thiazol-2-yl)benzo[d]oxazole-4-sulfonamide] | A (A: a % remaining rate of 75% or more) | < 100 nM | – |
| FC(F)(F)Oc1c(Cl)cc(-n2cccn2)c2oc(N3CC4CCC(C3)N4)nc12 [Example 5, 2-(3,8-Diazabicyclo[3.2.1]octan-3-yl)-5-chloro-7-(1H-pyrazol-1-yl)-4-(trifluoromethoxy)benzo[d]oxazole] | B (B: 60% or more and less than 75%) | – | < 100 nM |
| OCc1cccnc1Oc1ccc(-c2nccs2)c2oc(N3CC4CC(C3)N4)nc12 [Example 376, (2-((2-(3,6-Diazabicyclo[3.1.1]heptan-3-yl)-7-(thiazol-2-yl)benzo[d]oxazol-4-yl)oxy)pyridin-3-yl)methanol] | A (A: a % remaining rate of 75% or more) | < 100 nM | – |
| O=S(=O)(c1ccc(-c2nccs2)c2oc(N3CC4CC(C3)N4)nc12)C(F)(F)F [Example 334, 2-(3,6-Diazabicyclo[3.1.1]heptan-3-yl)-7-(thiazol-2-yl)-4-((trifluoromethyl)sulfonyl)benzo[d]oxazole] | B (B: 60% or more and less than 75%) | < 100 nM | – |
